According to patent publication US6562782B1, “Oligocycloalkanoid compounds and methods of use” (University of Rochester, priority 1999, dated 2003):

Assay: UV titration of ter-cyclopentane tetra-amino acid derivatives with lipid A
Type: binding, Salmonella minnesota
Conditions: for binding to lipid A in UV titration, in words: aqueous solution, concentrations below the cmc of lipid A / >20 micromolar in lipid A
Method: A 600 microliter, 0.9 μM solution of the ter-cyclopentane tetra-amino acid derivative in water (pH=5.0) or phosphate-buffered saline (PBS, pH=7.4) was allowed to equilibrate in a 1.0-ml masked wall UV cell at ambient temperature (22° C.), in a Shimadzu 1600-PC UV spectrophotometer. […] After each addition, the solution was allowed to equilibrate for a minimum of 5 minutes, then scanned for absorbance 550-220 nm.

| Compound | binding to lipid A in UV titration, in words | lipid A binding affinity compared with polymyxins |
| --- | --- | --- |
| NCC(=O)OCC1CC(COC(=O)CN)C(C2CCC(C3C(COC(=O)CN)CC(COC(=O)CN)C3COC(=O)c3ccccc3)C2)C1COC(=O)c1ccccc1 (stereo not shown) [Compound 7.1, tetra-glycinate ter-cyclopentane] | saturation point for binding of lipid A to 7.1 was not reached |  |
| NC(Cc1c[nH]c2ccccc12)C(=O)OCC1CC(COC(=O)C(N)Cc2c[nH]c3ccccc23)C(C2CCC(C3C(COC(=O)C(N)Cc4c[nH]c5ccccc45)CC(COC(=O)C(N)Cc4c[nH]c5ccccc45)C3COC(=O)c3ccccc3)C2)C1COC(=O)c1ccccc1 (mixture of isomers) [Compound 7.3, tetra-tryptophaninate ter-cyclopentane] |  | greater than the binding affinity of polymyxins |
| COC(=O)[C@@H](N)Cc1c[nH]c2ccccc12 [Compound H2N-Trp-OCH3, tryptophan methyl-ester, reference compound] | not saturatable at the concentrations tested |  |
| tetra-phenylalaninate ter-cyclopentane [Compound 7.2] | reasonable affinity |  |
